Consider one compound from patent publication US10413535B2, “Pharmaceutical compositions comprising an integrin ALPHA4 antagonist for use in treating ocular inflammatory conditions” (AXEROVISION, INC., priority 2015, dated 2019).

Where two headings read alike, the source gives them in different places.

Data set [1] concerns RPMI 8866 binding to CS-1. Description: CS-1 cell adhesion assay, RPMI 8866 cells. The conditions noted are these: Homo sapiens; RPMI 8866 cells to CS-1; identical duplicate values; read-out: Inhibition of cell adhesion (IC50). Type of data set: cell-based. As for the experimental part: Jurkat J6 cells (human lymphoblast cell line) were grown as a suspension culture in RPMI 1640 supplemented with FCS (10%) and glutamine (2 mM). RPMI8866 cells (human B lymphoid cell line) were grown as a suspension culture in RPMI 1640 supplemented with FCS (10%) and glutamine (2 mM). RBL-2H3 cells (rat basophilic cell line) were cultured in Eagle's MEM plus Earles salts supplemented with 2 mM L-glutamine, 1 mM sodium pyruvate, 1× non-essential amino acids, 1 mM Na pyruvate 10% heat inactivated foetal calf serum.
Polystyrene 96-well microtitre plates were coated with CS-1 (connecting segment 1, a cell attachment domain of fibronectin) at a concentration of 0.01 mg/mL in bicarbonate buffer overnight at 4° C. The solution was aspirated and the plates washed twice with PBS. The plates were then incubated at room temperature in the presence of 3% BSA for 60 min, ‘flicked’ to expel the BSA and washed twice in bicarbonate buffer. J6 or RPMI cells (as required) were labelled with the fluorescent dye BCECF-AM (10 μM and 6×10^6 cells/mL) for 10 min at 37° C. before the excess was removed by centrifugation at 500 g for 5 min and the cells resuspended at a cell concentration of 1.2×10^7 cells/mL in HBSS. Equal volumes of HBSS containing the compound of formula I (over concentration range 19.0 pM to 5 μM) and cells were added to the CS-1 coated plates. […] The plates were counted in a Wallac Viktor.

Data set [2] can be described thus: PK study in rabbits, ocular tissue concentrations (LC-MS/MS). It is filed as in vivo, New Zealand White rabbits. The conditions noted are these: for Tmax: topical or ocular, both studies; for concentration at 6 h: persisted up to 6 hours. The method, then:
The potassium salt of GW559090, referred to herein as GW559090A, was given to male New Zealand White rabbits by topical ocular administration as a single bilateral drop (Study #1: n=2 rabbits/4 eyes per time point; Study #2: n=3 rabbits/6 eyes per time point). At designated times (0.5, 1, 3, 6 hours post administration), ocular tissues were collected and processed for analysis. Concentrations of GW559090 were measured in cornea and bulbar conjunctiva by liquid chromatography with tandem mass spectrometry (LC-MS/MS).

Data set [3] relates to 53 receptors and 4 transporters. Description: MDS Pharma screen, radioligand binding assays. The settings on record: at 10 μM.
In data set [4] the test system is IL-1α, MMP-9, CXCL9, TGF-β1 expression. Briefly: Inflammatory marker gene expression in cornea and conjunctiva (real time PCR), desiccating stress model. Type of data set: in vivo, mouse. The settings on record: topical 30 mg/mL, 5 days DS, vs vehicle. The method, then:
Female C57BL/6 mice, aged 6 to 8 weeks, were subjected to DS for 5 days (DS5) as described previously (de Paiva et al., 2006b; Niederkorn et al., 2006). Topical bilateral treatment with 1 eye drop per eye (2 μL volume) or subcutaneous injection (4 μL volume), 2 times per day, was initiated on day 1 concurrently with DS and continued through day 4. Treatment with the compound of formula I or dexamethasone phosphate 0.1% was compared to correspondingly treated vehicle controls. Mice were randomized to receive one of the test articles. Control mice were kept in a non-stressed (NS) environment maintained at 50-75% relative humidity without exposure to airflow or scopolamine and were not treated with test or control article. Treatment effects were assessed on corneal staining with Oregon Green Dextran (OGD); expression of inflammatory markers in ocular surface tissues by real time PCR; cell population analysis in draining cervical lymph nodes by FACS analysis; conjunctival T cell infiltration by immunohistochemistry.
Total RNA was isolated from corneal and conjunctival epithelia that was collected and pooled from 2 eyes (right and left) at each time point from untreated control mice, mice subjected to DS for 5 days (DS5), DS5 mice topically treated with the compound of formula I ([…]) and vehicle treated animals (n=7/group) using a PicoPure™ RNA Isolation Kit (Acturus Bioscience Inc, Mountain View, Calif., USA) following the manufacturer's protocol. Briefly, corneal epithelial cells were scraped and whole conjunctiva was cut and placed in 100 μL of extraction buffer and incubated at 42° C. for 30 minutes. The cell extract was loaded onto a preconditioned purified column, which was centrifuged, treated with DNase (Qiagen, Valencia, Calif., USA) and washed twice with two different wash buffers. The RNA was eluded in 12 μL of low ionic strength buffer. The RNA concentration was measured by absorption at 260 nm using a spectrophotometer (NanoDrop 2000, Thermo Scientific, Wilmington, Del., USA) and samples were stored at −80° C. until use. First-strand cDNA was synthesized from 1 μg of total RNA with random hexamers using M-MuLV reverse transcriptase (Ready-To-Go You-Prime First-Strand Beads; Amersham Pharmacia Biotech, Inc., Piscataway, N.J.) as previously described (de Paiva et al., 2006a).
A cDNA aliquot (1-4 μL) from samples was used for real time PCR in a total volume of 10 μL containing the following per reaction: 0.3 μL of gene specific Taqman probes used and 5 μL of 2× Taqman Fast PCR Master Mix, (Applied Biosystems). Real time PCR was performed on a StepOnePlus™ Real-Time PCR System (Applied Biosystems) and the parameters consisted of pre-denaturation at 95° C. for 22 sec, followed by 40 cycles of denaturation at 95° C. for 1 sec, annealing and extension at 60° C. for 20 sec. Samples and standards were assayed in duplicate. A non-template control and total RNA without retrotranscription were included in all the experiments to evaluate PCR and DNA contamination of the reagents used. The following mouse Taqman probes were used: IL-1α (Mm00439620); MMP-9 (Mm00442991); CXCL9 (Mm004434946); TGF-β1 (Mm00441724) and HPRT-1 (Mm00446968). The HPRT-1 gene was used as an endogenous reference for each reaction. The results of quantitative PCR were analyzed by the comparative CT method where target change=2-ΔΔ CT. The results were normalized by the CT value of HPRT-1 of the untreated control group (de Paiva et al., 2006b).
Due to skewed distribution of OGD data, the analysis was done on the log 10 scale to make the data more normally distributed. Log 10 OGD data was averaged across two observers and the left and right eyes. The mixed effects ANOVA model included treatment group as a fixed effect and week as a random effect. 95% and 99% confidence intervals were constructed for the disease (5 day DS vs untreated group kept in separate vivarium) and compound treatment effects (treatment vs vehicle). […]

The mark [5] stands for this setting: male, New Zealand White, rabbit, conjunctiva, topical, 40 μL (50 mg/mL) GW559090A, read-out: Conjunctival tissue concentration.
Where [6] appears, read: male, New Zealand White, rabbit, cornea, topical, 40 μL (50 mg/mL) GW559090A, read-out: Corneal tissue concentration.
[7] abbreviates: single topical 40 μL (50 mg/mL) GW559090A.

A word on the IC50: it is the concentration needed to halve the response being measured. By Tmax is commonly meant the time from dosing to the highest level. In the case of `Cc1ccccc1OCC(=O)N[C@@H](CC(C)C)C(=O)N[C@@H](Cc1ccc(OC(=O)N2CCC(C(N)=O)CC2)cc1)C(=O)O` [GW559090, (2S)-3-[4-({[4-(Aminocarbonyl)-1-piperidinyl]carbonyl}oxy)phenyl]-2-[((2S)-4-methyl-2-{[2-(2-methylphenoxy)acetyl]amino}pentanoyl)amino]propanoic acid], in data set [1], the IC50 was determined as 24.5 nM. The “Mean cornea concentrations versus mean conjunctiva concentrations” value in data set [2] (3 and 6 hour postdose) is “higher”. Moreover, the time to peak (Tmax) in data set [2] (male, New Zealand White, rabbit, bulbar conjunctiva, single topical 40 μL (50 mg/mL) GW559090A, read-out: Tmax in bulbar conjunctiva) was found to be 60 min. For the same compound, in data set [2] (setting [5]), the concentration at 30 min was more than 3000 ng/mL and the concentration at 6 h is approximately 358 ng/mL. Also, in data set [2] (male, New Zealand White, rabbit, cornea, single topical 40 μL (50 mg/mL) GW559090A, read-out: Tmax in cornea), the Tmax came out at 30 min. In data set [2] (setting [6]), the concentration at 30 min was more than 3000 ng/mL and the concentration at 6 h was approximately 358 ng/mL. In addition, in data set [2] (male, New Zealand White, rabbit, cornea, topical, at 3 hours, 40 μL (50 mg/mL) GW559090A, read-out: Corneal tissue concentration), the concentration at 3 h is more than 1000 ng/mL. Also, in data set [2] (setting [7]), the “Mean conjunctiva concentrations quantifiable through” value was determined as 6 h and the “Mean cornea concentrations quantifiable through” value was determined as 6 h. In data set [3], the “Inhibition in radioligand binding assays” value is on record as “No significant inhibition”. Further, in data set [4], the “CXCL9 transcripts in cornea” value is recorded as “significant decrease”, the “CXCL-9 expression in conjunctiva” value is given as “no change”, the “IL-1α expression in conjunctiva” value is reported as “no change” and the “IL-1α transcripts in cornea” value was “significant decrease”. In data set [4], the “MMP-9 expression in conjunctiva” value is given as “no change”, the “MMP-9 transcripts in cornea” value is listed as “significant decrease”, the “TGF-β1 expression in conjunctiva” value is on record as “significant reduction” and the “TGF-β1 transcripts in cornea” value is given as “significant decrease”.
